{
  "source": "patent US11000525B2",
  "about": "“1-[2-(aminomethyl)benzyl]-2-thioxo-1,2,3,5-tetrahydro-4H-pyrrolo[3,2-d]pyrimidin-4-ones as inhibitors of myeloperoxidase” (AstraZeneca AB, priority 2014, dated 2021)",
  "key": {"[1]": {"assay": "Plasma urate levels in healthy volunteers (clinical trials)", "assay_type": "in vivo, human", "conditions": "daily dose for 10 days, NCT00914303, FIG. 2", "procedure": "Subjects received placebo or the indicated daily dose for 10 days, and the difference in plasma urate levels versus baseline was calculated. Each symbol represents one subject."}, "[2]": {"test_system": "MPO purified from the human cell line HL60", "assay": "MPO inhibition screen (Test A), ascorbate loss at 260 nm", "assay_type": "biochemical", "conditions": "selectivity for MPO over TPO", "procedure": "Methods for the determination of MPO inhibitory activity are disclosed in WO 02/090575. The pharmacological activity of compounds disclosed herein was tested in the following screen (Test A) in which the compounds were tested in the presence of ascorbate, which reacts with MPO-derived hypochlorous acid (HOCl) to form dehydro-ascorbate. The loss of ascorbate is followed by measuring absorbance at 260 nm.\nAssay buffer: 100 μM diethyl triamine pentaacetic acid (DTPA) in buffer consisting of 10 mM Na2HPO4/NaH2PO4, 3 mM KCl in 140 mM NaCl, pH 7.4.\nEnzyme solution: MPO purified from the human cell line HL60, 1.38 nM (final concentration 0.7 nM) and L-ascorbate, 100 μM (final concentration 50 μM) in Assay buffer\nAbsorbance was measured at 260 nm to obtain a compound blank value. After an additional 10 min, 40 μL of the substrate solution was added and the absorbance at 260 nm was recorded between 4 and 40 min to obtain kinetic readings of enzyme activity."}},
  "note": "Entries after “also recorded” stand apart in the source; their conditions may differ.",
  "data": [
    {"compound": "CC(C)OCCn1c(=S)[nH]c(=O)c2[nH]ccc21", "note": "[AZD3241]", "values": [
      {"measurement": "Reduction of plasma urate (uric acid) levels versus baseline", "setting": "[1]", "value": "dose-dependent reduction of uric acid; also recorded: dose-dependently reduced urate levels"}
    ]},
    {"compound": "O=c1[nH]c(=S)n(Cc2ccccc2CNC2CCC2)c2cc[nH]c12", "note": "[Example 10, 1-{2-[(Cyclobutylamino)methyl]benzyl}-2-thioxo-1,2,3,5-tetrahydro-4H-pyrrolo[3,2-d]pyrimidin-4-one]", "values": [
      {"measurement": "IC50 (TPO)/IC50 (MPO)", "setting": "[2]", "value": 1100}
    ]}
  ]
}
